Test system: 233499-124-R-J3-PDC spheroids with HUVEC/MSC, viability
Assay: Anticancer human tumor 233499-124-R-J3-PDC patient-derived colon adenocarcinoma cell line growth inhibition [PI3K]
Conditions: for IC50: curve of first compound; for viability, T/C: stronger effect = lower value
In short: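 Complex 3D spheroids (cancer cells + endothelial HUVEC + mesenchymal stem cells); drug pairs of targeted agent x inavolisib/alpelisib/duvelisib/copanlisib; half-log series from ~Cmax, max 10 microM if Cmax unknown; endpoint viability.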

[1] = second compound 0.00316 µM, first compound 0.0316 µM
[2] = second compound 0.00316 µM, first compound 0.1 µM
[3] = second compound 0.00316 µM, first compound 0.316 µM
[4] = second compound 0.00316 µM, first compound 1 µM
[5] = second compound 0.00316 µM, first compound 3.16 µM
[6] = second compound 0.00316 µM, first compound 10 µM
[7] = second compound 0.01 µM, first compound 0.0316 µM
[8] = second compound 0.01 µM, first compound 0.1 µM
[9] = second compound 0.01 µM, first compound 0.316 µM
[10] = second compound 0.01 µM, first compound 1 µM
[11] = second compound 0.01 µM, first compound 3.16 µM
[12] = second compound 0.01 µM, first compound 10 µM
[13] = second compound 0.0316 µM, first compound 0.0316 µM
[14] = second compound 0.0316 µM, first compound 0.1 µM
[15] = second compound 0.0316 µM, first compound 0.316 µM
[16] = second compound 0.0316 µM, first compound 1 µM
[17] = second compound 0.0316 µM, first compound 3.16 µM
[18] = second compound 0.0316 µM, first compound 10 µM
[19] = second compound 0.1 µM, first compound 0.0316 µM
[20] = second compound 0.1 µM, first compound 0.1 µM
[21] = second compound 0.1 µM, first compound 0.316 µM
[22] = second compound 0.1 µM, first compound 1 µM
[23] = second compound 0.1 µM, first compound 3.16 µM
[24] = second compound 0.1 µM, first compound 10 µM
[25] = second compound 0.316 µM, first compound 0.0316 µM
[26] = second compound 0.316 µM, first compound 0.1 µM
[27] = second compound 0.316 µM, first compound 0.316 µM
[28] = second compound 0.316 µM, first compound 1 µM
[29] = second compound 0.316 µM, first compound 3.16 µM
[30] = second compound 0.316 µM, first compound 10 µM
[31] = second compound 1 µM, first compound 0.0316 µM
[32] = second compound 1 µM, first compound 0.1 µM
[33] = second compound 1 µM, first compound 0.316 µM
[34] = second compound 1 µM, first compound 1 µM
[35] = second compound 1 µM, first compound 3.16 µM
[36] = second compound 1 µM, first compound 10 µM
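Also: spheroids exposed to agents for seven days before readout.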
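For viability, T/C in this document: percent viability relative to DMSO vehicle control taken as 100%.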

For `C#Cc1c(F)ccc2cc(O)cc(-c3ncc4c(N5CC6CCC(C5)N6)nc(OCC56CCCN5CC(F)C6)nc4c3F)c12` (centres undefined) + CC(Nc1ccc2c(c1)OCCn1cc(N3C(=O)OCC3C(F)F)nc1-2)C(N)=O, the IC50 (second compound 0.00316 µM) was > 10 µM, the IC50 (second compound 0.01 µM) was 2.92 µM and the IC50 (second compound 0.0316 µM) was > 10 µM. The IC50 (second compound 0.1 µM) was > 10 µM, the IC50 (second compound 0.316 µM) was 5.35 µM and the IC50 (second compound 1 µM) was 0.716 µM. It also gave a viability, T/C [1] of 83.7%, a viability, T/C [2] of 76% and a viability, T/C [3] of 92%. For the same compound, the viability, T/C [4] was 110%, the viability, T/C [5] was 95.3% and the viability, T/C [6] was 85.5%. For the same compound, the viability, T/C [7] was 99.1%, the viability, T/C [8] was 105% and the viability, T/C [9] was 91.4%. It also gave a viability, T/C [10] of 98.7%, a viability, T/C [11] of 46.5% and a viability, T/C [12] of 46%. For the same compound, the viability, T/C [13] was 93.1%, the viability, T/C [14] was 102% and the viability, T/C [15] was 85.4%. For the same compound, the viability, T/C [16] was 85.4%, the viability, T/C [17] was 95.8% and the viability, T/C [18] was 77.4%. For the same compound, the viability, T/C [19] was 99.8%, the viability, T/C [20] was 81% and the viability, T/C [21] was 83.9%. The viability, T/C [22] was 60.2%, the viability, T/C [23] was 70.8% and the viability, T/C [24] was 49.6%. For the same compound, the viability, T/C [25] was 77.2%, the viability, T/C [26] was 78.2% and the viability, T/C [27] was 63.2%. The viability, T/C [28] was 75.1%, the viability, T/C [29] was 59.2% and the viability, T/C [30] was 38%. For the same compound, the viability, T/C [31] was 67.8%, the viability, T/C [32] was 58.6% and the viability, T/C [33] was 58.6%. For the same compound, the viability, T/C [34] was 44%, the viability, T/C [35] was 44.4% and the viability, T/C [36] was 35.2%.
In the case of `C=CC(=O)N1CCN(c2nc(=O)n(-c3c(C)ccnc3C(C)C)c3nc(-c4c(O)cccc4F)c(F)cc23)C(C)C1` (centres undefined) + CC(Nc1ccc2c(c1)OCCn1cc(N3C(=O)OCC3C(F)F)nc1-2)C(N)=O, the IC50 (second compound 0.00316 µM) is reported as > 10 µM, the IC50 (second compound 0.01 µM) is reported as > 10 µM and the IC50 (second compound 0.0316 µM) is reported as > 10 µM. For the same compound, the IC50 (second compound 0.1 µM) was > 10 µM, the IC50 (second compound 0.316 µM) was > 10 µM and the IC50 (second compound 1 µM) was > 10 µM. For the same compound, the viability, T/C [1] was 101%, the viability, T/C [2] was 87.5% and the viability, T/C [3] was 87.9%. For the same compound, the viability, T/C [4] was 113%, the viability, T/C [5] was 100% and the viability, T/C [6] was 100%. The viability, T/C [7] was 85.9%, the viability, T/C [8] was 88.8% and the viability, T/C [9] was 77.5%. It also gave a viability, T/C [10] of 95.6%, a viability, T/C [11] of 97.5% and a viability, T/C [12] of 86.2%. For the same compound, the viability, T/C [13] was 85.8%, the viability, T/C [14] was 106% and the viability, T/C [15] was 91.4%. For the same compound, the viability, T/C [16] was 92.8%, the viability, T/C [17] was 93.5% and the viability, T/C [18] was 84.6%. It also gave a viability, T/C [19] of 103%, a viability, T/C [20] of 94.5% and a viability, T/C [21] of 91.3%. The viability, T/C [22] was 83%, the viability, T/C [23] was 87% and the viability, T/C [24] was 57.1%. For the same compound, the viability, T/C [25] was 92.7%, the viability, T/C [26] was 80.5% and the viability, T/C [27] was 80.8%. The viability, T/C [28] was 77.4%, the viability, T/C [29] was 71% and the viability, T/C [30] was 85.5%. It also gave a viability, T/C [31] of 61%, a viability, T/C [32] of 67.7% and a viability, T/C [33] of 44.3%. For the same compound, the viability, T/C [34] was 56.3%, the viability, T/C [35] was 63.6% and the viability, T/C [36] was 66.9%.

Reference: PubChem BioAssay AID1963984 (Molecular Pharmacology Branch, DTP, NCI, 2024)
